Measured values published in patent US20250017878A1 (Chronic Airway Therapeutics Limited, priority 2021, published 2025).

Legend:
β-arrestin pathway = assay: Blockade of the β-arrestin pathway, Example 16 / FIG. 16; type: cell-based
[1] = system: mucous metaplasia in sensitized/challenged mice; assay: Mucous metaplasia in sensitized/challenged mice (photomicrographs), Example 10; type: in vivo; conditions: sensitized/challenged mice after treatment
[2] = system: asthmatic mice (ovalbumin-sensitized and ovalbumin-challenged); assay: Airway responsiveness to methacholine (airway resistance Raw, forced oscillation) in murine model of asthma, Example 1; type: in vivo, Balb/cJ mice; conditions: for airway responsiveness to methacholine provocation (Raw), chronic treatment: drug delivered for 28 days (chow or osmotic minipump); for airway responsiveness to methacholine provocation (Raw), acute treatment: single intravenous bolus 15 minutes before methacholine
Procedure: The results obtained in drug-treated animals were compared with those obtained in vehicle-treated counterparts (controls) in experiments performed in close temporal relationship. […] Mice were sensitized with subcutaneous injection of 25 μg of ovalbumin adsorbed to aluminum hydroxide on protocol days 2, 9, and 16. Subsequently, mice were given 50 μL of saline solution containing 25 μg of ovalbumin intranasally, on a daily basis, from protocol days 23 through 27. A group of ovalbumin-sensitized saline-challenged mice serves as controls for systemic sensitization and respiratory challenges with ovalbumin. Prior to intranasal administrations, mice were sedated with halothane vapor. For the study of Example 1, ovalbumin-sensitized and ovalbumin-challenged mice, and ovalbumin-sensitized and saline-challenged mice will be referred to as asthmatic mice and control mice, respectively. […] To examine the effects of duration of β-adrenergic ligand therapy on the phenotype of the murine model of asthma, the experimental drugs were administered either acutely or chronically to different groups of asthmatic mice. […] These concentrations were chosen based on those producing therapeutic effects in mice in previously published studies. The non-asthmatic mice were fed normal chow. Salbutamol was delivered for 28 days at a dose of 0.5 mg/kg/day using an osmotic minipump (Alzet®, #2004, Durect Corporation, Cupertino, CA). […] Airway resistance (Raw) was measured using the forced oscillation technique. The cellular composition of bronchoalveolar lavage fluid (BALF) was also determined. […] However, it was observed that the degree of airway responsiveness and the number of eosinophils recovered in BALF were lower in non-treated asthmatic mice studied in close temporal relationship with mice receiving acute β-adrenergic antagonist treatments that in those obtained in non-treated asthmatic mice studied concomitantly with mice on chronic β-adrenergic antagonist therapy. […] The complex input impedance of the respiratory system was computed and the value of the real part of respiratory system impedance at 19.75 Hz was taken to reflect the magnitude of airway resistance (Raw). To examine the degree of airway responsiveness of each animal, the values for Raw as a function of methacholine doses were plotted. The largest value for Raw achieved in response to methacholine stimulation was referred to as […]. For mice that achieved a plateau in the methacholine dose-Raw response curve, the ED50 was calculated by linear interpolation using the GraphPad Prism4 (GraphPad Software, Inc.). Results obtained for β-adrenergic drug-treated and non-treated mice were performed using the analysis of variance for multiple groups of a Student's t-test for comparing two groups. The Bonferroni test was used to examine the statistical differences between experimental groups. The effects of acute drug treatments on baseline respiratory system mechanics were assessed using a two-tailed paired t-test. A value of P<0.05 was considered significant.

β2-adrenergic receptor [3] = assay: Determination of β-adrenergic receptor density by radioligand (ICYP) binding in lung membranes of treated asthmatic mice, Example 2; type: in vivo; conditions: for change of the level of the β2-adrenergic receptor, in words: chronic treatment; for Apparent KD (of radioligand ICYP) / Bmax (β-adrenergic receptor density) / βmax (β-adrenergic receptor density): lung membranes; for Apparent KD (of radioligand ICYP): KD of ICYP binding, not of the drug; for Bmax (β-adrenergic receptor density) / βmax (β-adrenergic receptor density): mean ± SEM, n=3-5
Procedure: β2-adrenergic receptor numbers were measured in asthmatic mice as follows. […] Mice were sacrificed and lung membranes were isolated as follows. Frozen lung tissue was homogenized in an ice-cold buffer containing 0.32 M sucrose and 25 mM Tris (pH 7.4) using a polytron (Pro 200, Pro Scientific, Inc.). The homogenate was centrifuged at 1000×g for 10 min at 4° C. The resulting supernatant was centrifuged at 40,000×g for 20 min at 4° C. The pellet was suspended in an ice-cold 25 mM Tris-HCl buffer (pH 7.4) and centrifuged at 40,000×g for 20 min at 4° C. The final pellet was suspended in 200 μL of 25 mM Tris-HCl (pH 7.4); membrane protein concentration was determined by BCA protein assay kit. […] The incubation was done at 37° C. for 2 h and terminated by rapid vacuum filtration through glass fiber filters. The filters were washed three times with 250 μL of cold wash buffer (25 mM Tris-HCl, pH 7.4) and the radioactivity determined in a counter. […] Receptor densities are expressed as femtomoles of sites per milligram of protein. Bmax is determined by nonlinear regression of the saturation binding curves. […] Please note that the 15-minute and 28-day time points refer to duration of drug treatment.

β2-adrenergic receptor [4] = molecular target: β2-adrenergic receptor (Mus musculus, UniProt P18762); assay: Upregulation of β2-adrenergic receptor density by period of administration, Example 8 / Table 2; type: in vivo, mice; design: from tissue
Procedure: (§1) The periods of administration of the agents are 15 minutes, 2 days, and 28 days. […] This strongly supports the concept of combination therapy, such as with an inverse agonist and an agonist.

asthmatic mice [5] = assay: Decrease in airway resistance (Raw) by period of administration, Example 8 / Table 2; type: in vivo
Procedure: as §1

[6] = system: asthmatic mice (ovalbumin-sensitized, challenged); assay: Combination of carvedilol and salbutamol on airway hyperresponsiveness, Example 4; conditions: 28 days treatment; highest dose of methacholine
Procedure: Mice (Balb/cJ) aged 6 weeks were housed under specific pathogen-free conditions and fed a chicken ovalbumin-free diet. Mice were systemically sensitized with ovalbumin adsorbed to aluminum hydroxide.
To induce airway constriction, a solution containing 150 μg/mL of methacholine was infused using a syringe infusion pump. […] Each methacholine dose was administered until a plateau was reached, during which data were sampled at 1-minute intervals for 3-5 minutes and then averaged.

asthmatic mice [7] = assay: β-adrenergic receptor drugs at low and high doses on airway resistance, Example 7; type: in vivo; conditions: chronic administration in chow, high and low dose
Procedure: For these experiments, salbutamol was used for chronic administration at 0.5 mg/kg/day with a minipump and for acute administration at 0.15 mg/kg by i.v. bolus 15 minutes prior to challenge. […] Carvedilol was used at a high dose of 2400 ppm in chow or at a low dose of 720 ppm in chow. […] In these diagrams, Ctrl=control mice, non-asthmatic, non-drug treated; NTX=asthmatic mice, non-drug treated; AC=acute administration; 2d=chronic administration for 2 days; 28d=chronic administration for 28 days. The airway resistance (Raw) is plotted as cm H2O ml^−1 s.

[8] = cited from earlier work
[9] = cited from earlier work; remark: listed apart in the source
asthmatic mice [10] = assay: Chronic treatment with metoprolol and timolol on airway responsiveness in asthmatic mice, Example 9; type: in vivo; conditions: 7 days; metoprolol 20 mg/kg 3× daily s.c., timolol 20 mg/kg in chow; methacholine challenge
Procedure: Airway resistance (Raw) was measured as in Example 1. The results were compared to historical controls as shown in FIG. 9B: Ctrl, no drug treatment, no challenge with methacholine; NTX, no drug treatment, challenged with methacholine.

Sequence of β2-adrenergic receptor (Mus musculus, UniProt P18762) (P18762 whole entry): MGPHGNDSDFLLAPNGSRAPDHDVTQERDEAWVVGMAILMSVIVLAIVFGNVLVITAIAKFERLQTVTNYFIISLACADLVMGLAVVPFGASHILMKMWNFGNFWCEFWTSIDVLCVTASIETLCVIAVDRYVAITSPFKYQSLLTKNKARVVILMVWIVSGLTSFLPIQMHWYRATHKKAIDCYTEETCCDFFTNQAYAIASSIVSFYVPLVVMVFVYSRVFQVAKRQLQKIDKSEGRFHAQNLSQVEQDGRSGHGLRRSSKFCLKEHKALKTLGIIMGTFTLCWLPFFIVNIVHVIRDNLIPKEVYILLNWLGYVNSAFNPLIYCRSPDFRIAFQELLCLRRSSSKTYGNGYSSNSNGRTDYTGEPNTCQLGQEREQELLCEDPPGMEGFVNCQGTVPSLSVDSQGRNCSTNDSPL

Row | SMILES | block of the β-arrestin pathway (β-arrestin pathway) | airway responsiveness to methacholine provocation (Raw), chronic treatment [2] | airway responsiveness to methacholine provocation (Raw), acute treatment [2] | Apparent KD (of radioligand ICYP) (β2-adrenergic receptor [3]; drug treatment 15 Minutes) | Bmax (β-adrenergic receptor density) (β2-adrenergic receptor [3]; drug treatment 15 Minutes) | Apparent KD (of radioligand ICYP) (β2-adrenergic receptor [3]; drug treatment 28 Days) | βmax (β-adrenergic receptor density) (β2-adrenergic receptor [3]; drug treatment 28 Days) | Increased β2AR density (β2-adrenergic receptor [4]; 15 minutes administration) | Increased β2AR density (β2-adrenergic receptor [4]; 2 days administration) | Increased β2AR density (β2-adrenergic receptor [4]; 28 days administration) | Decreased Raw (asthmatic mice [5]; 15 minutes administration) | Decreased Raw (asthmatic mice [5]; 2 days administration) | Decreased Raw (asthmatic mice [5]; 28 days administration) | also measured
1 | C=CCc1ccccc1OCC(O)CNC(C)C (stereo not drawn) [Alprenolol, alprenolol] | did not block the β-arrestin pathway | provides no benefit upon chronic administration | airway responsiveness was diminished | (453.6 ± 86.33) pM | 299.5 ± 12.19 femtomoles of sites per milligram of protein | (290.9 ± 55.07) pM | 179.2 ± 53.05 femtomoles of sites per milligram of protein | yes | no | no | yes | no | no | mucous metaplasia [1]: no improvement in mucous metaplasia; change of the level of the β2-adrenergic receptor, in words (β2-adrenergic receptor [3]): slight decrease of the level of the 2-adrenergic receptor
2 | COc1ccccc1OCCNCC(O)COc1cccc2[nH]c3ccccc3c12 (stereo not drawn) [Carvedilol, carvedilol] | did not block the β-arrestin pathway | reduced the responsiveness of asthmatic mice to methacholine provocation | enhanced the airway responsiveness in the asthmatic mice | (565.2 ± 192.8) pM | 86.3 ± 19.42 femtomoles of sites per milligram of protein | (1444.0 ± 202.0) pM | 904.1 ± 43.46 femtomoles of sites per milligram of protein | no | no | yes | no | no | yes | bronchoconstriction / airway hyperresponsiveness to allergen and methacholine challenge [6]: higher bronchoconstriction than these treatments but less than the non-drug treated sensitized and challenged (NTX S/C) mice; increase of the level of β2-adrenergic receptors over the non-treated mice (β2-adrenergic receptor [3]; chronic administration, versus untreated methacholine-challenged asthmatic mice): over 10 fold; protection from airway hyperresponsiveness (asthmatic mice [7]): providing protection from airway hyperresponsiveness with chronic administration
3 | CC(C)(C)NCC(O)c1ccc(O)c(CO)c1 (stereo not drawn) [Salbutamol, salbutamol] | – | no protection was observed | reduced the level of airway responsiveness to methacholine provocation and the level of airway resistance | (228.8 ± 33.07) pM | 256.5 ± 29.24 femtomoles of sites per milligram of protein | (225.4 ± 41.79) pM | 97.0 ± 23.02 femtomoles of sites per milligram of protein | yes | no | no | yes | no | no | change of the level of the β2-adrenergic receptor, in words (β2-adrenergic receptor [3]): slight decrease; bioavailability of inhaled drug ([8]; 10 patients with cystic fibrosis versus healthy adults): greater than that in healthy adults
4 | CCCC1O[C@@H]2C[C@H]3[C@@H]4CCC5=CC(=O)C=C[C@]5(C)[C@H]4[C@@H](O)C[C@]3(C)[C@]2(C(=O)CO)O1 (stereo partly drawn) [budesonide] | – | – | – | – | – | – | – | – | – | – | – | – | – | plasma clearance of the two enantiomers per kilogram bodyweight, children with asthma higher than healthy adults ([9]; 6 children with asthma versus 11 healthy adults): about 50%; elimination half-life ([9]; in vivo): 2.8 ± 1.1 h; plasma clearance ([9]; in vivo): 84 ± 27 L/h; plasma clearance relative to average clearance of prednisolone ([9]; in vivo): about 10 fold; systemic availability of the swallowed fraction ([9]; in vivo): 10.7±4.3%
5 | C[C@@H]1C[C@H]2[C@@H]3C[C@H](F)C4=CC(=O)C=C[C@]4(C)[C@@]3(F)[C@@H](O)C[C@]2(C)[C@@]1(O)C(=O)SCF [fluticasone] | – | – | – | – | – | – | – | – | – | – | – | – | – | first-pass hepatic metabolism of the systemically absorbed drug ([9]; inhaled drug): almost complete
6 | COCCc1ccc(OCC(O)CNC(C)C)cc1 (stereo not drawn) [metoprolol] | – | – | – | – | – | – | – | – | – | – | – | – | – | airway hyperresponsiveness after chronic treatment (asthmatic mice [10]): effective in reducing airway hyperresponsiveness in asthmatic mice
7 | CC(C)NCC(O)COc1cccc2ccccc12 (stereo not drawn) [propranolol] | did not block the β-arrestin pathway | – | – | – | – | – | – | – | – | – | – | – | – | –
8 | OCc1cc(C(O)CNCCCCCCOCCCCc2ccccc2)ccc1O (stereo not drawn) [salmeterol] | – | – | – | – | – | – | – | – | – | – | – | – | – | time in which the majority of a dose is eliminated in the feces ([8]; in vivo): ≤ 72 h
9 | CC(C)(C)NCC(O)c1cc(O)cc(O)c1 (stereo not drawn) [terbutaline] | – | – | – | – | – | – | – | – | – | – | – | – | – | increase of bioavailability by the oral component ([8]; from an MDI): 6.7%; absorption through the lung ([8]; healthy smokers versus healthy nonsmokers): more rapidly in healthy smokers than in healthy nonsmokers
10 | CC(C)(C)NC[C@H](O)COc1nsnc1N1CCOCC1 [timolol] | – | – | – | – | – | – | – | – | – | – | – | – | – | airway hyperresponsiveness after chronic treatment (asthmatic mice [10]): effective in reducing airway hyperresponsiveness in asthmatic mice
